According to patent US20080275111A1, “Novel Use of Lignan Compounds” (priority 2005, published 2008):

Key:
cell line HT-22 [1] = experiment: Reactive oxygen species production in cell line HT-22 (CM-H2DCFDA); format: cell-based; conditions: 5 μM compound, 8 hours
Procedure: A cell line HT-22 (obtained from Dr. David Schubert) derived from the hippocampus playing a part in memory of the brain was treated with 5 mM of glutamate and 5 μM of the lignan compound of the present invention simultaneously for 8 hours. As a control, the cell line HT-22 was not treated with the lignan compound of the present invention. The treated cell line HT-22 was then treated with CM-H2DCFDA (chloromethyl derivative of dichlorodihydrofluorescein diacetate, Molecular Probes) to analyze the production of reactive oxygen species.

cell line HT-22 [2] = experiment: Brain cell apoptosis induced by glutamate in HT-22 (WST-1); format: cell-based; conditions: HT-22, 5 mM glutamate 24 hours, compound 1, 2, 5 and 10 μM
Procedure: A cell line HT-22 derived from the hippocampus was treated with 5 mM glutamate for 24 hours to induce apoptosis. As a control, the cell line HT-22 was not treated with glutamate. Then, the cell line HT-22 was treated with the lignan compound of the present invention at concentrations (1, 2, 5 and 10 μM) for 24 hours. The cell death was analyzed with WST-1(Roche).

[3] = system: lipid peroxidation of the brain tissue; experiment: Lipid peroxidation of brain homogenate supernatant induced by hydrogen peroxide; format: biochemical, rat
Procedure: After anesthesia of a rat, the tissue of the rat was perfused with 0.9% physiological saline solution containing EDTA. The brain was then extracted from the rat and washed with ice-cold 20 mM Tris-HCl (pH 7.4). After removing water, the weight of the brain was measured. The brain was mixed with 0.1 g/ml of ice-cold 20 mM Tris-HCl (pH 7.4) and homogenized. The homogenized brain was centrifuged and the supernatant was collected. 40 μl of the supernatant was mixed with 40 mM of hydrogen peroxide to induce lipid peroxidation. Simultaneously, different concentration (0.5, 1, 5 and 10 μM) of the lignan compounds isolated from the Example 1 were added into the supernatant, respectively. After incubation of the supernatant in water (37° C.) for 30-60 minutes, 162.5 μl of R1 solution (lipid peroxidation assay kit, Cat. No. 437634, Calbiochem) and 37.5 μl of R2 solution (lipid peroxidation assay kit, Cat. No. 437634, Calbiochem) were added into the cultured supernatant, and the supernatant was further incubated at 45° C. for 40 minutes. Then, the absorbance of the incubated medium was measured at 586 nm to quantify the lipid peroxidation.

IL-6 = IL-6 production in LPS-activated microglia (ELISA); format: cell-based, rat; conditions: 1 μg/ml LPS, compound 2.5 and 10 μM, 24 hours
Source text: When the microglia is activated by LPS, it synthesizes and secretes various pro-inflammatory cytokines such as IL-1, IL-6 and TNF-α (Chen, S. Neurobiol. Aging, 17:781-787, 1996). Therefore, in order to examine the anti-inflammatory effect of the lignan compound of the present invention, the effect of the lignan compound of the present invention on the production of IL-6 and TNF-α in the activated microglia. First, only the neocortex was isolated from the brain of 1 day-old rat. Then, a microglia-astroglia mixture was prepared according to a method known in the art (Kim, H. Y. et al., J. Immunol., 171:6072-6079, 2003). […] Then, the amount of IL-6 and TNF-α secreted into the cell cultured medium was measured with the solid-phase ELISA system (RPN2742 for IL-6, RPN2744 for TNF-α, Amersham Bioscience). For this analysis, 50 μl of the supernatant of the cultured medium of microglia and 50 μl of the standard of each material (purely isolated and quantified IL-6 or TNF-α) were added into a 96-well plate coated with an antibody specific to mouse IL-6 and TNF-α. […] Then, 100 μl of a stop solution (Amersham Bioscience) was added into each well to stop the reaction, and the absorbance of the solution in each well was measured with a microreader at 450 nm. […]

COc1cc(C[C@H](C)[C@H](C)Cc2ccc3c(c2)OCO3)ccc1O [macelignan, (8R,8′S)-7-(3,4-methylenedioxyphenyl)-7′-(4-hydroxy-3-methoxyphenyl)-8,8′-dimethylbutane]
production of reactive oxygen species induced by glutamate (cell line HT-22 [1]; HT-22, 5 mM glutamate): inhibited | production of reactive oxygen species occurred naturally in a cell (cell line HT-22 [1]; HT-22 not treated with glutamate): significantly inhibited | brain cell apoptosis induced by glutamate (cell line HT-22 [2]): dose-dependently inhibited | lipid peroxidation induced by hydrogen peroxide at 10 μM ([3]; 10 μM compound, compared with control without hydrogen peroxide): in the similar level as the control | lipid peroxidation induced by hydrogen peroxide ([3]; rat brain supernatant, 40 mM hydrogen peroxide, compound 0.5, 1, 5 and 10 μM): dose-dependently inhibited | production of IL-6 induced by LPS (IL-6): dose-dependently inhibited
